# ChEMBL document CHEMBL1201862, “PubChem BioAssay data set” (2004)
# The source made the active and inactive calls.
# Columns and labels:
# [1] = target: RNA-editing ligase 1, mitochondrial (Trypanosoma brucei brucei, UniProt P86926); experiment: inhibition of trypanosome RNA editing ligase – biochemical, fluorescence, Trypanosoma brucei, dose response (AID 1117295); assay type: functional
# [2] = glucagon-like peptide-1 release potency in STC-1, concentration-response, half-maximal inhibitory concentration in the STC-1 line (AID 1117345); assay type: functional, cell-based
# [3] = Potency on glucagon-like peptide 1 release, dose-response in NCI-H716 cell line, half maximal inhibitory concentration (AID 1117344); assay type: functional, cell-based
# [4] = embryonic kidney cell viability loss – CellTiter-Glo luminescence, dry powder, set 20, cytotoxicity control, dose response (AID 1117293); assay type: functional, cell-based; settings: HEK293
# Protein skinhead-1 = target: T1, Protein skinhead-1 (Caenorhabditis elegans, UniProt P34707); assay type: functional
# T1 sequence (P34707 whole entry): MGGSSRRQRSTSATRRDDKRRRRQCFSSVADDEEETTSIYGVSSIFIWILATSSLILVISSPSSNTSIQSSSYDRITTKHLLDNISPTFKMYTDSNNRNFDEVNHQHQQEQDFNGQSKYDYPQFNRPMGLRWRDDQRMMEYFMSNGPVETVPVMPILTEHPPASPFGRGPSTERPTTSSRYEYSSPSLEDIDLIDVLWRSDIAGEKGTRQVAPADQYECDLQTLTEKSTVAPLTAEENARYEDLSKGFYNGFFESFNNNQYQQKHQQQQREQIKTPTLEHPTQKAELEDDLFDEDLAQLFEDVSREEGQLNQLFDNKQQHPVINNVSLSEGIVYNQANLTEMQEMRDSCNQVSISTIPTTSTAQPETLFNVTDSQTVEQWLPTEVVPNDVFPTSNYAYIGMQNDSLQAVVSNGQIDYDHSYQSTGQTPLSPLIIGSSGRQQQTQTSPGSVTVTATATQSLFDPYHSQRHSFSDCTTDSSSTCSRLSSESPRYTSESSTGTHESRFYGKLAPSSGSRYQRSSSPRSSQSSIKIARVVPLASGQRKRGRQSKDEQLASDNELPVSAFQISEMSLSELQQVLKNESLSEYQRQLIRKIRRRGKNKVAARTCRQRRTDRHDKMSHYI
# [5] = target: T2, Oxysterols receptor LXR-beta (Homo sapiens, UniProt P55055); assay type: functional, cell-based;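 also: Cell-based luminescence dose-response assay of agonist activity at LXR, run as a confirmatory counterscreen to a daf-12 agonist screen; HEK293 cells with Gal4-LXR fusion and GAL4-driven luciferase reporter; agonist potency from rising luciferase signal of a Gal4-LXR reporter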
# T2 sequence (P55055 whole entry): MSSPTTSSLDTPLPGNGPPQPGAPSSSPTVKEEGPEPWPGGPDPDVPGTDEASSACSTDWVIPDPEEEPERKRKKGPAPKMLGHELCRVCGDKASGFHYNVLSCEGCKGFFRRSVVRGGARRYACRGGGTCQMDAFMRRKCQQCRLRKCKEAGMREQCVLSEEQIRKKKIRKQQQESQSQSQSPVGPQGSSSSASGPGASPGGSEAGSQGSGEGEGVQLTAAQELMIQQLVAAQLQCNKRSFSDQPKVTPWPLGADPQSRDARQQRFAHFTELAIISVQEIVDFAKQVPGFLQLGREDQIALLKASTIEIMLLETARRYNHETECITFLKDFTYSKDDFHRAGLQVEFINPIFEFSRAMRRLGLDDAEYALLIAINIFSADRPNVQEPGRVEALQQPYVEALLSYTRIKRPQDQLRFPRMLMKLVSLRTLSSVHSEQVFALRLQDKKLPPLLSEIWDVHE
# NADPH oxidase 1 = NADPH oxidase 1 (Homo sapiens, UniProt Q9Y5S8); experiment: Late-stage luminescence-based cell-based dose response assay to identify inhibitors of NADPH oxidase 1 (NOX1): Synthesized analogs.; assay type: functional
# Chain of NADPH oxidase 1 (Q9Y5S8 whole entry): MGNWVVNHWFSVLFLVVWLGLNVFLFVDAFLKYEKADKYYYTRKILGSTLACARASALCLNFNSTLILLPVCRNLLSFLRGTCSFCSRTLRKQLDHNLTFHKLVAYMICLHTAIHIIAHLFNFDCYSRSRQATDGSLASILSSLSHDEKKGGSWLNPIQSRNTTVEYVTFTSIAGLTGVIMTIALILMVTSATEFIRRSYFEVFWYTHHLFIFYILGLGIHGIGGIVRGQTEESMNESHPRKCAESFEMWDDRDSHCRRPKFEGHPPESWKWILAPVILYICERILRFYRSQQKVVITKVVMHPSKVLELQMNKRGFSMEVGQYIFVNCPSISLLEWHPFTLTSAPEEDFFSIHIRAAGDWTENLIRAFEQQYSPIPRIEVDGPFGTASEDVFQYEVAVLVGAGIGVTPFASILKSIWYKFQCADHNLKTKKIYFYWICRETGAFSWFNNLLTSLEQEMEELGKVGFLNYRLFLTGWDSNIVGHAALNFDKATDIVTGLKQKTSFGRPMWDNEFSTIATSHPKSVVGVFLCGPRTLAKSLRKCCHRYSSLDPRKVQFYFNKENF
# Transthyretin = Transthyretin (Homo sapiens, UniProt P02766); experiment: Luminescence-based cell-based high throughput dose response assay to identify activators of Transthyretin (TTR) transcription.; assay type: functional
# [6] = Luminescence Cell-Based Dose Confirmation HTS to Identify Activators of 5'UTR Stem-Loop Driven Alpha-Synuclein mRNA Translation in H4 Neuroglioblastoma Cells. [Related pubchem assays: 1829 (Project Summary), 1814 (Primary HTS)]; assay type: functional
# [7] = Luminescence Cell-Based Dose Response HTS to Identify Activators of Luciferase Translation or Activity in H4 […] Cells. [Related pubchem assays: 1829 (Project Summary), 1814 (Primary HTS)]; assay type: functional
# H4 = experiment: Luminescence Cell-Based Dose Response HTS to Identify Activators of 5'UTR Stem-Loop Driven Prion Protein mRNA Translation in H4 Neuroglioblastoma Cells. [Related pubchem assays: 1829 (Project Summary), 1814 (Primary HTS)]; assay type: functional; settings: Homo sapiens
# Kallikrein-7 = Kallikrein-7 (Homo sapiens, UniProt P49862); experiment: Fluorescence Intensity-based biochemical primary high throughput dose response assay to identify activators of kallikrein-7 (K7) zymogen.
# Chain of Kallikrein-7 (P49862 whole entry): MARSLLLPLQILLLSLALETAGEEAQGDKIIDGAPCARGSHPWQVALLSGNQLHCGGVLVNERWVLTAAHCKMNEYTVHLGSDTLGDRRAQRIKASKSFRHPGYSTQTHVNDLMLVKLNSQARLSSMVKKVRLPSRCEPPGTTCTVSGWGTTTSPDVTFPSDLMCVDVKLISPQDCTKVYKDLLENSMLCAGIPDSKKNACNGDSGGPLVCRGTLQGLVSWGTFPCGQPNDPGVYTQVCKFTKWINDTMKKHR
# [8] = target: Complement C1s subcomponent (Homo sapiens, UniProt P09871); experiment: Complement C1s ELISA. [Related pubchem assays: 538, 787 ]; assay type: functional
# Chain of Complement C1s subcomponent (P09871 16-437 limits assumed): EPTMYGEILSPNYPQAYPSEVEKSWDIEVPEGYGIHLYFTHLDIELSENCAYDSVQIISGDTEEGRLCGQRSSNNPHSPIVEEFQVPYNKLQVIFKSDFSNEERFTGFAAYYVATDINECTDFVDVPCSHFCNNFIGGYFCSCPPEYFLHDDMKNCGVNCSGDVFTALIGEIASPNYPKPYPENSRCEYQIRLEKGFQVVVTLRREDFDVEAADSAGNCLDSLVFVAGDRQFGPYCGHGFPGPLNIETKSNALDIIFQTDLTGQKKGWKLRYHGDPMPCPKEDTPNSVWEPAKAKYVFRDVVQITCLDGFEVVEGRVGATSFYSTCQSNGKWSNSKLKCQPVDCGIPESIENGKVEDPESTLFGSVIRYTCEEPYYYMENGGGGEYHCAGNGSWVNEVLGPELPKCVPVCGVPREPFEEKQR
# Chain of Complement C1s subcomponent (P09871 438-688 limits assumed): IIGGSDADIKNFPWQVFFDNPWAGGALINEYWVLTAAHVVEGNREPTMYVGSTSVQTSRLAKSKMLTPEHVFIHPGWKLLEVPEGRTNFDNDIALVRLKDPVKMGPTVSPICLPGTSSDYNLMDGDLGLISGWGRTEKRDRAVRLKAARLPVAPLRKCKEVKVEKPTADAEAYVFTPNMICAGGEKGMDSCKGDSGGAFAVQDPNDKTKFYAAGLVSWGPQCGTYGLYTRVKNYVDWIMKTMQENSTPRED
# Prothrombin = Prothrombin (Homo sapiens, UniProt P00734); experiment: Thrombin 1536 HTS Dose Response Confirmation. [Related pubchem assays: 1046 (Thrombin 1536 HTS; hits were confirmed in this assay)]; assay type: functional
# Chain of RNA-editing ligase 1, mitochondrial (P86926 whole entry): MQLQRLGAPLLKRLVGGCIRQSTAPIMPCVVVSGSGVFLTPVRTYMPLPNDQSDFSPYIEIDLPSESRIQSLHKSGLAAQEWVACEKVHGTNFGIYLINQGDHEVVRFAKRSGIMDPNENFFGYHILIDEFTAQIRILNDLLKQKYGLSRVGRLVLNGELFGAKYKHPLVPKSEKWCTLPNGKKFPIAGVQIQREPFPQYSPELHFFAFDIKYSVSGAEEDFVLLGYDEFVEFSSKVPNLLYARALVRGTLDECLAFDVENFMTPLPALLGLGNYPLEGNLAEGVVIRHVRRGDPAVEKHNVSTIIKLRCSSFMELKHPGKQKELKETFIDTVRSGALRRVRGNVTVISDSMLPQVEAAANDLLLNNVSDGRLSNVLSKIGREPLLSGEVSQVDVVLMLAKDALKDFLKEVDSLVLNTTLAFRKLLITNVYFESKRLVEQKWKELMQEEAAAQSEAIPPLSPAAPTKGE
smiles,measurement,setting,value
COC(=O)C1=C(C)N(Cc2ccc(C(F)(F)F)cc2)C(NCc2ccc(OC)cc2)=NC1c1ccccc1C(F)(F)F (stereo not given),IC50,[1],> 96.6 µM (inactive)
Oc1cccc2cccnc12,IC50,[2],> 20 µM (inactive)
same,IC50,[3],> 40 µM (inactive)
O=S(=O)(Nc1cc(C(F)(F)F)ccc1N1CCCCC1)c1ccc(-c2ccccc2)cc1,AC50,[4],0.852 µM (active)
CNc1ccc(C=C2C=Cc3ccccc32)cc1,IC50,Protein skinhead-1,20.5 µM (active)
same,EC50,[5],> 67.6 µM (inactive)
same,EC50,cells,> 67.6 µM (inactive)
O=C(c1ccco1)N1c2ccccc2Sc2ccccc21,IC50,NADPH oxidase 1,6.37 µM (active)
Cc1c(Br)c(C(=O)N2CCc3ccccc32)nn1C,EC50,Transthyretin,> 167 µM (inactive)
same,EC50,[6],11.7 µM (active)
same,EC50,[7],6.16 µM (active)
same,EC50,H4,99.2 µM (active)
COC(=O)c1ccc(N2C(c3cc(OC)cc(OC)c3)=Cc3ccc(-c4ccc(C(N)=O)cc4)cc3C2CC(=O)C2CC2)cc1 (stereo not given),EC50,Kallikrein-7,> 7.72 µM (active)
COc1ccc(-c2nc(SC)n(C(=O)c3ccco3)n2)cc1,IC50,[8],> 50 µM (not active)
same,IC50,Prothrombin,1.14 µM (active)
